The conditions of data set [1]: 332.7 K; 101 kPa; Liquid.
Data set [2] in a line: xn = mol fraction of the nth substance listed. The conditions noted are these: 332.7 K, 101 kPa, Liquid.

SMILES strings stand for the structures. Numbers after ± are expanded uncertainties.

Consider `CC(C)CCO` [3-methylbutan-1-ol], for which, in data set [1], the mass density was found to be 778.14 ± 0.37 kg/m3.

On to `CC(C)CCO` [3-methylbutan-1-ol] + CCOC(C)=O, for which the mass density amounted to 778.14 ± 0.37 kg/m3 in data set [2] (x2 = 0); 780.94 ± 0.36 kg/m3 in data set [2] (x2 = 0.0501); 784.25 ± 0.36 kg/m3 in data set [2] (x2 = 0.1087); 788.1 ± 0.36 kg/m3 in data set [2] (x2 = 0.1714); 791.81 ± 0.35 kg/m3 in data set [2] (x2 = 0.2296); 795.6 ± 0.35 kg/m3 in data set [2] (x2 = 0.29). For the same compound, the mass density in data set [2] (x2 = 0.3561) was determined as 799.89 ± 0.34 kg/m3; in data set [2] (x2 = 0.4088), 803.56 ± 0.34 kg/m3; in data set [2] (x2 = 0.4659), 807.59 ± 0.34 kg/m3; in data set [2] (x2 = 0.5339) it was 812.5 ± 0.33 kg/m3; in data set [2] (x2 = 0.5891), 816.6 ± 0.33 kg/m3; in data set [2] (x2 = 0.6597), 821.96 ± 0.32 kg/m3. Moreover, the mass density in data set [2] (x2 = 0.7088) worked out at 825.91 ± 0.31 kg/m3; in data set [2] (x2 = 0.7693), 830.72 ± 0.31 kg/m3; in data set [2] (x2 = 0.8286) it was 835.79 ± 0.3 kg/m3; in data set [2] (x2 = 0.8882), 840.96 ± 0.3 kg/m3; in data set [2] (x2 = 0.9488), 846.43 ± 0.29 kg/m3.

On to `CCOC(C)=O` [ethyl acetate], for which the mass density in data set [1] worked out at 851.36 ± 0.28 kg/m3.

Take `CCOC(C)=O` [ethyl acetate] + CC(C)CCO: the mass density in data set [2] (x1 = 1) is 851.36 ± 0.28 kg/m3.

For the origin of these results see the NIST ThermoML archive (doi:10.1016/j.fluid.2008.03.002).
